Patent publication US9132171B2, “Test of insulin as a drug to reduce restenosis of vessels” (WISCONSIN ALUMNI RESEARCH FOUNDATION, priority 2012, dated 2015)

Columns and labels:
IGF-2BP3 = assay: mRNA expression array analysis of TGFbeta/Smad3-treated SMCs; format: cell-based, mouse; details: data not shown
Excerpt: Cell Culture. Aortic SMCs were isolated from mouse (MOVAS) aortas. Rat aortic fibroblasts were isolated as previously described by Pagano et al., Localization of a constitutively active, phagocyte-like NADPH oxidase in rabbit aortic adventitia: enhancement by angiotensin II, Proc. Natl. Acad. Sci. USA. December 23; 94(26):14483-8 (1997), incorporated herein by reference as if set forth in its entirety, and used to visualize collagen secretion into growth media. These cells were transfected with green fluorescent protein (GFP) and SMAD3 adenoviral vectors expressing Smad3 (AdSmad3) and GFP (AdGFP), constructed as previously described in Ryer, E. et al., Arterioscler Thromb Vasc Biol. 26:780-786, 2006, incorporated herein by reference as if set forth in its entirety. Adenoviral vector expressing GFP was used as a control (AdGFP).
CTGF and IGF-2 are present in the CM derived from SMCs that overexpress Smad3 (FIGS. 2A and B respectively).

[1] = system: left carotid artery balloon angioplasty; assay: Balloon injury model with morphometric analysis; format: in vivo, rat; details: periadventitial in Pluronic gel, 14 days after injury, relative to non-treated vessels
Protocol: In vivo studies conformed to the Guide for the Care and Use of Laboratory Animals published by the US National Institute of Health. Approval from the Institutional Animal Care and Use Committee was granted. Male Sprague-Dawley rats underwent angioplasty of the left common carotid artery. Periadventitial Insulin (1 microgram) along with CTGF (100 nanogram) suspended in 200 μL of Pluronic® gel was applied to the adventitial surface of the artery immediately after injury. Control animals were subjected to application of Pluronic® gel only. Fourteen days after injury, carotid was harvested utilizing perfusion fixation at physiological pressure of 100 mmHg.
Paraffin-embedded arteries were cut into 5 μm sections for analysis. Morphometric analysis was carried out on arteries stained with Haematoxilin and Eosin. For each animal, 10 sections were selected for analysis using digital software for Dell PC Computers (ImageJ and Photoshop V.7). The areas encompassed by the lumen surface (luminal area), […], internal elastic lamina-lumen surface (neointimal area), EEL-internal elastic lamina (medial area) and EEL length were measured. For evaluation of remodeling index, the EEL was measured and compared with that of controls. […]

[2] = system: Smad3-expressing smooth muscle cells (SMCs); assay: MTT cell proliferation assay; format: cell-based, rat; details: insulin 1 μg/ml, TGF-beta 5 ng/ml, 96 hours
Protocol: FIG. 7 illustrates a MTT proliferation assay of Smad3-expressing smooth muscle cells (SMCs) at 96 hours after treatment with TGF-beta (5 ng/ml) or TGF beta (5 ng/ml)+Insulin (1 μg/ml).
MTT cell proliferation assay was performed to visualize the effect of insulin on SMC proliferation. Smad3-transfected rat SMCs were stimulated with TGF-beta. Cells were then treated with 1 μg of insulin and the MTT assay was performed following 96 hours of treatment.
To determine whether insulin is sufficient for decreasing TGF-beta and Smad3-stimulated SMC proliferation, an MTT proliferation assay was carried out. Insulin abolished the TGF-beta-stimulated proliferation of Smad3-expressing SMCs (FIG. 7).

vessels = details: in vivo; cited from earlier work
rat aortic fibroblasts = assay: Collagen III and I in culture medium of treated rat aortic fibroblasts (direct ELISA, Western blot); format: cell-based; details: CTGF, insulin (1 ug) or both, 72 hours
Protocol: Collagen produced by rat fibroblasts was measured using Western blotting. […] GFP (control) and Smad3-transfected SMCs were starved for 24 hours in 0.5% serum DMEM medium and then treated with TGFbetal (5 ng/ml) for 48 hours. […] Thirty micrograms of proteins from each sample were separated on 10% SDS-PAGE gels. Protein samples were transferred to a polyvinylidene fluoride (PVDF) membrane. Rabbit anti-collagen type III (1:1000) and I (1:1000) (Fitzgerald) and goat-anti Rabbit (1:5000) were used as primary and secondary antibodies respectively to confirm immunoblotting. Conditioned medium was blotted parallel to unconditioned culture medium to rule out the possibility of presence of collagen in the former. Immunoblotting was carried out to visualize collagen I and III in culture medium after treating rat fibroblasts with CTGF (0.1 μg/ml) and IGF-2 (0.3 μg/ml) for 72 hours. These experiments were replicated using insulin in place of IGF-2. ELISA was used to detect the presence of IGF-2 and CTGF in the conditioned medium using the primary antibodies from Abcam® according to manufacturer's instructions. Fitzgerald Collagen I and III primary antibodies were used to visualize changes in collagen production in the fibroblast culture medium following treatment with CTGF and IGF small interfering RNA-(siRNA) transfected conditioned medium for 72 hours. […]

[3] = system: balloon-injured blood vessels; details: CTGF applied to balloon-injured vessels; cited from earlier work
balloon-injured vessel = assay: Collagen I/III immunostaining of balloon-injured artery after perivascular CTGF; format: in vivo, rat; details: CTGF 80 ng in 200 microliters Pluronic gel, 14 days after carotid artery injury
Excerpt: FIG. 5 illustrates collagen subtype induction by CTGF in vivo. Arteries were injured and treated with recombinant CTGF as described in FIG. 2. Arterial sections, harvested at 14 days post-injury, were subsequently immunostained for either Type I (COLI) or Type III collagen (COLIII). (A) Representative tissue sections from solvent-(CTRL) or CTGF-treated arteries (CTGF). Negative controls were established by staining sections without primary antibodies to collagen. 100X (B) Semi-quantification of adventitial COLI or COLIII was carried out, and the effects of CTGF on COLI or COLIII were expressed as fold induction; n=6, *p<0.05 as compared to COLIII. […] FIG. 5B depicts CTGF-mediated differential production of collagens III and I when CTGF was applied around a balloon-injured vessel.

Molecule | IGF-2BP3 increase (IGF-2BP3; 6 hours treatment) [folds] | IGF-2BP3 increase (IGF-2BP3; 48 hours treatment) [folds] | Increase in lumen size [1] [%] | Neo-intimal growth [1] | TGF-beta-stimulated proliferation of Smad3-expressing SMCs [2] | Cell migration into the intima (vessels) | Intima cell proliferation or apoptosis (vessels) | Re-endothelialization in vessels (vessels) | Collagen III production in rat aortic fibroblasts (rat aortic fibroblasts) | Lumen remodeling [3] | Adventitial collagen III versus collagen I (balloon-injured vessel)
TGFbeta: TGF-beta (5 ng/ml) used to treat Smad3-transfected SMCs | 2.8 | 2.4 |  |  |  |  |  |  |  |  | 
insulin |  |  | 29.24 | decreased neo-intimal growth | abolished | inhibit cell migration into the intima | does not decrease | increase re-endothelialization | some increase in collagen III |  | 
Connective Tissue Growth Factor (protein, UniProt P29279 27-349, looked up, soluble factor secreted by blood vessel adventitial cells) CCN family member 2: QNCSGPCRCPDEPAPRCPAGVSLVLDGCGCCRVCAKQLGELCTERDPCDPHKGLFCHFGSPANRKIGVCTAKDGAPCIFGGTVYRSGESFQSSCKYQCTCLDGAVGCMPLCSMDVRLPSPDCPFPRRVKLPGKCCEEWVCDEPKDQTVVGPALAAYRLEDTFGPDPTMIRANCLVQTTEWSACSKTCGMGISTRVTNDNASCRLEKQSRLCMVRPCEADLEENIKKGKKCIRTPKISKPIKFELSGCTSMKTYRAKFCGVCTDGRCCTPHRTTTLPVEFKCPDGEVMKKNMMFIKTCACHYNCPGDNDIFESLYYRKMYGDMA |  |  |  |  |  |  |  |  | some increase in collagen III | expansively remodeled | collagen III increased significantly more as compared to collagen I
